Test results: the NIST ThermoML archive (doi:10.1016/j.fluid.2014.05.036)
± gives the expanded uncertainty stated by the source.

Key:
[1] = Crystal; DTA
[2] = Molar enthalpy of transition or fusion; conditions: Crystal; DSC

| SMILES | Normal melting temperature [1] [°C] | Molar enthalpy of transition or fusion [2] [kcal/mol] |
| --- | --- | --- |
| CCCOC(=O)c1ccc(O)cc1 [propyl 4-hydroxybenzoate] | 96.40 ± 0.5 | 6.34 ± 0.182 |
| CCOC(=O)c1ccc(O)cc1 [ethyl 4-hydroxybenzoate] | 115.50 ± 0.5 | 6.16 ± 0.179 |
